The text below walks through data of publication PMC3626661, “Functional Specificity of Sex Pheromone Receptors in the Cotton Bollworm Helicoverpa armigera” (PLoS ONE, 2013).

Common to all, as to assay: two-electrode voltage clamp in Xenopus oocytes, dose-response
Common to all, as to assay type: cell-based

For one assay, the target named is T1, HarmOR6 (Helicoverpa armigera, UniProt R4JSE3).
T1 construct: gene OR6; full-length ORF; with HarmOrco (HarmOR2)
T1 sequence (R4JSE3 1-425): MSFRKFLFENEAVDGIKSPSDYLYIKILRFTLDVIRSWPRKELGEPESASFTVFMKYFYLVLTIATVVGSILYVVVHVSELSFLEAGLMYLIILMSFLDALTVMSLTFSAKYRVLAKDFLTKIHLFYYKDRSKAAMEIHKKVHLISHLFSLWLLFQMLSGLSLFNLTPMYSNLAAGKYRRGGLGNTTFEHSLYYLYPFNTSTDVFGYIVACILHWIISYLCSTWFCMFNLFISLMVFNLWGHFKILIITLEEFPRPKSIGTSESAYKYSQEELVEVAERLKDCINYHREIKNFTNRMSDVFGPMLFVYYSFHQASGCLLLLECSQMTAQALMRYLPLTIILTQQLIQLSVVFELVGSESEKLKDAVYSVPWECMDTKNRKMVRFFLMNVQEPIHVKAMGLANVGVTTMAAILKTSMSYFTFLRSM
T1 sequence (A0A075TD45 1-473 partner): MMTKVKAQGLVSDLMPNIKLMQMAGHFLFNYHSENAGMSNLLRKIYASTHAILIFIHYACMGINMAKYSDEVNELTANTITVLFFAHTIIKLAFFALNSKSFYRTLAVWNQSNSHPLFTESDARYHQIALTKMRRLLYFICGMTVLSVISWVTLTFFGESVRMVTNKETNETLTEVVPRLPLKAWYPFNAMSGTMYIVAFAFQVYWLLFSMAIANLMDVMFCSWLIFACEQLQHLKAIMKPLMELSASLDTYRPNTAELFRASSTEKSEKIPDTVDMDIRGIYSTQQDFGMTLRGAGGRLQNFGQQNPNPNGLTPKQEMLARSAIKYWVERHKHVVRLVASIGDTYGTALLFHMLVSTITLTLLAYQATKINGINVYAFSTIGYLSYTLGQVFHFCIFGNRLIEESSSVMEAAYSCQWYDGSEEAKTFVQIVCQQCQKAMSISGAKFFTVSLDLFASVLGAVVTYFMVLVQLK
From the text:
two-electrode voltage clamp in Xenopus oocytes, dose-response on HarmOR6 | Dose–response curve of HarmOR6/HarmOR2 Xenopus oocytes to Z9-16:Ald. | Dose–response curve of HarmOR6/HarmOR2 Xenopus oocytes to Z9-14:Ald.

The target of the next assay is T2, HarmOR13 (Helicoverpa armigera, UniProt A0A075TD52).
T2 construct: gene OR13; full-length ORF; with HarmOrco (HarmOR2)
T2 sequence (A0A075TD52 1-425): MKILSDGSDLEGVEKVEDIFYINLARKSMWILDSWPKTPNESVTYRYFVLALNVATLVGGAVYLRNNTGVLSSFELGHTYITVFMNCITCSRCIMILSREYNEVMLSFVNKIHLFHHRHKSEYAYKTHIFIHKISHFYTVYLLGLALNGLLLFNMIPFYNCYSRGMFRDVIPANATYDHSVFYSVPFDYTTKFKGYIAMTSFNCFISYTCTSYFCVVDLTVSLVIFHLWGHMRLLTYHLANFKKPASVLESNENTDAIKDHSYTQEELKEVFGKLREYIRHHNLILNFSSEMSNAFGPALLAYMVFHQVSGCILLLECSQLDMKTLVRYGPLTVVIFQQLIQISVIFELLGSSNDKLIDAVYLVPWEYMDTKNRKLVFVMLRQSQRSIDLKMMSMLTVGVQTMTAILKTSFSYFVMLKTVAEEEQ
T2 sequence (A0A075TD45 1-473 partner): T1 sequence (A0A075TD45 1-473 partner)

A further assay addresses T3, HarmOR16 (Helicoverpa armigera, UniProt C6K7B8).
T3 construct: full-length ORF; with HarmOrco (HarmOR2)
T3 sequence (C6K7B8 1-422): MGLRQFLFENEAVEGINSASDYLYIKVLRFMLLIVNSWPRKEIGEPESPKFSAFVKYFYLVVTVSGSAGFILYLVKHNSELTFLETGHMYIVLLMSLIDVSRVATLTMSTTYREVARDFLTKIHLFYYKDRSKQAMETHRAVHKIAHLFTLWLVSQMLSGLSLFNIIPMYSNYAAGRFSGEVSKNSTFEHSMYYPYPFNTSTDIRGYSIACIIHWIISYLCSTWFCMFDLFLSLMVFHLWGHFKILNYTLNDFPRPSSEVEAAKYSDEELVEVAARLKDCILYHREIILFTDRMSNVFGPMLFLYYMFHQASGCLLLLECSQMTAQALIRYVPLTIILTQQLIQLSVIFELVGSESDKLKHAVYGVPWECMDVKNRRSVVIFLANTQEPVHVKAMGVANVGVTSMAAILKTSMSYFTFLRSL
T3 sequence (A0A075TD45 1-473 partner): T1 sequence (A0A075TD45 1-473 partner)
The source says: two-electrode voltage clamp in Xenopus oocytes, dose-response on HarmOR16 | Dose–response curve of HarmOR16/HarmOR2 Xenopus oocytes to Z11-16:OH.

Structures are written as SMILES.

By EC50 is commonly meant the midpoint of the concentration-response curve. A higher EC50 goes with weaker potency. `CCCC/C=C\CCCCCCCC=O` [Z9-14:Ald, (Z)-9-tetradecenal]: the EC50 at HarmOR6 worked out at 4.34 µM.

As to `CCCCCC/C=C\CCCCCCCC=O` [Z9-16:Ald, (Z)-9-hexadecenal], at HarmOR6, the EC50 was found to be 3.53 µM.

At HarmOR13, `CCCC/C=C\CCCCCCCCCC=O` [Z11-16:Ald, (Z)-11-hexadecenal] came in with an EC50 of 1.82 µM.

In turn, `CCCC/C=C\CCCCCCCCCCO` [Z11-16:OH, (Z)-11-hexadecen-1-ol] displayed an EC50 at HarmOR16 of 0.299 µM.
